Values joined by “and” are separate entries in the source; they are usually repeats but may differ in a detail not shown here. Equal values may be shown once. Read-outs that look alike come from different tables or passages of the source.

Assay type in all cases: cell-based, human
Assay [1] concerns PBMCs from LTBI donors (IFN-γ production).
Assay [2] relates to PBMCs depleted of CD4+ or CD8+ T cells.
Assay [3] relates to CD4-purified cells from LTBI donors. As to conditions: range over donors analyzed.
The mark [4] stands for this setting: individual MTB epitope peptide, one value per responding LTBI donor.
Where [5] appears, read: phenotype of the responding T cells per donor, n.d. = assay not done.

For the sequence AAGGWDSLAAELATT, the SFC in assay [1] (setting [4]) was 130.0 and 31.7. For the same sequence, the T cell phenotype entry in assay [2] (setting [5]) is “CD4 and undetectable”.

For AAIHEMFVNTLQMSS, the SFC in assay [1] (setting [4]) was 25.0 and 165.0. Further, the T cell phenotype result in assay [2] (setting [5]) is listed as “CD8”.

Regarding AAIHEMFVNTLVASS, in assay [1] (setting [4]), the SFC is 41.7 and 160.0 and 26.7 and 61.7. Besides, the T cell phenotype entry in assay [2] (setting [5]) was “CD8 and undetectable (2×)”.

Take AALPLLFFALAGQRI: the SFC in assay [1] (setting [4]) is 81.7 and 36.7 and 33.3 and 143.3 and 45.0. In addition, in assay [2] (setting [5]), the T cell phenotype entry was “CD4 (3×) and undetectable (2×)”.

AATQARAAAAAFEAA: the SFC in assay [1] (setting [4]) is listed as 25.0. Also, in assay [2] (setting [5]), the T cell phenotype result was “undetectable”.

In the case of AAVPAVGAAAGAPAA, the SFC in assay [1] (setting [4]) is 203.3 and 28.3 and 20.0 and 30.0. Further, the T cell phenotype entry in assay [2] (setting [5]) is “CD4 (2×) and undetectable (2×)”.

On to ADYLRMWIQAATVMS, for which the SFC in assay [1] (setting [4]) was 375.0 and 35.0 and 128.3 and 48.3 and 26.7 and 75.0. The T cell phenotype entry in assay [2] (setting [5]) was “CD4 (5×) and undetectable”.

In assay [1] (setting [4]), AEAPAAAAAPEEQVQ gave an SFC of 20.0. For the same sequence, the T cell phenotype entry in assay [2] (setting [5]) was “CD4”.

As to AELMILIATNLLGQN, the SFC in assay [1] (setting [4]) was 33.3 and 90.0. Further, the T cell phenotype result in assay [2] (setting [5]) was “CD4 and undetectable”.

In the case of AGCQTYKWETFLTSE, the SFC in assay [1] is 60.0 and 55.8 and 36.7 and 51.7. Moreover, the T cell phenotype result in assay [2] is “CD4 and undetectable”.

With ALLPRAGAAAAAALP, in assay [1] (setting [4]), the SFC is 45.0 and 26.7. Further, the T cell phenotype result in assay [2] (setting [5]) is listed as “CD4”.

Regarding ALQSHDDVALVSVMW, in assay [1] (setting [4]), the SFC was 28.3 and 61.7. For the same sequence, the T cell phenotype result in assay [2] (setting [5]) is “CD4 and undetectable”.

With ALSAEYAAVAQELSV, the SFC in assay [1] (setting [4]) was 31.7 and 46.7. Besides, the T cell phenotype entry in assay [2] (setting [5]) is given as “CD4”.

Consider ALSRVHSMFLGTGGS, for which the SFC in assay [1] (setting [4]) was 71.7 and 43.3. In assay [2] (setting [5]), the T cell phenotype result was “CD4”.

As for APQINFFYYLGEPIV, the SFC in assay [1] (setting [4]) is 20.0. In addition, in assay [2] (setting [5]), the T cell phenotype result is reported as “undetectable”.

As to APYVAWMRATAIQAE, the SFC in assay [1] (setting [4]) turned out to be 41.7. Besides, the T cell phenotype entry in assay [2] (setting [5]) is “undetectable”.

Turning to AQIYQAVSAQAAAIH, the SFC in assay [1] (setting [4]) was 225.0 and 86.7. Also, the T cell phenotype result in assay [2] (setting [5]) is “CD4”.

Turning to AQLSQLISLLPSTLQ, the SFC in assay [1] (setting [4]) is 50.0 and 51.7 and 23.3. Moreover, the T cell phenotype result in assay [2] (setting [5]) is “undetectable”.

The sequence AQNGVQAMSSLGSSL showed an SFC in assay [1] (setting [4]) of 46.7. In assay [2] (setting [5]), the T cell phenotype result is “CD4”.

With AWMSAAAAQAEQAAT, the SFC in assay [1] (setting [4]) amounted to 25.0. For the same sequence, the T cell phenotype entry in assay [2] (setting [5]) is “undetectable”.

Consider AYGSFVRTVSLPVGA, for which, in assay [1] (setting [4]), the SFC is 271.7 and 45.0. In addition, the T cell phenotype result in assay [2] (setting [5]) is “CD4”.

In assay [1] (setting [4]), DPMVQIPRLVANNTR displayed an SFC of 60.0. Also, the T cell phenotype result in assay [2] (setting [5]) is given as “undetectable”.

Regarding DYVRMWVQAATVMSA, in assay [1] (setting [4]), the SFC is 343.3 and 38.3 and 31.7 and 81.7 and 28.3. In assay [2] (setting [5]), the T cell phenotype entry was “CD4 (3×) and CD4/CD8 and undetectable”.

On to EIVQFLEETFAAYDQ, for which, in assay [1] (setting [4]), the SFC is 103.3 and 105.0 and 25.0 and 80.0. Moreover, the T cell phenotype entry in assay [2] (setting [5]) was “CD4 (3×) and undetectable”.

In the case of ELFVAAYVPYVAWLV, the SFC in assay [1] (setting [4]) is 25.0 and 20.0 and 30.0 and 21.7 and 28.3. Besides, the T cell phenotype result in assay [2] (setting [5]) was “undetectable”.

In the case of FFGQNTAAIAATEAQ, the SFC in assay [1] (setting [4]) is 193.3 and 165.0. Further, the T cell phenotype result in assay [2] (setting [5]) is listed as “CD4”.

On to FGQNTASIAATEAQY, for which the SFC in assay [1] (setting [4]) was 110.0 and 26.7. Further, the T cell phenotype result in assay [2] (setting [5]) is reported as “CD4”.

Take FGQNTGAIAAAEARY: the SFC in assay [1] (setting [4]) is 108.3 and 276.7. For the same sequence, the T cell phenotype entry in assay [2] (setting [5]) is listed as “CD4”.

Consider FGQNTSAIAAAEAQY, for which, in assay [1] (setting [4]), the SFC was 161.7 and 176.7. Further, in assay [2] (setting [5]), the T cell phenotype result is recorded as “CD4”.

Turning to FVQALTTAAASYASV, the SFC in assay [1] (setting [4]) is 26.7 and 23.3. Besides, the T cell phenotype result in assay [2] (setting [5]) is “undetectable”.

Take GEEYLILSARDVLAV: in assay [1] (setting [4]), the SFC was 136.7 and 60.0 and 145.0 and 151.7 and 45.0 and 53.3. In assay [2] (setting [5]), the T cell phenotype entry is “CD4 (4×) and undetectable (2×)”.

For the sequence GINTIPIAINEAEYV, the SFC in assay [1] (setting [4]) is 120.0 and 201.7 and 20.0 and 118.3. Further, the T cell phenotype result in assay [2] (setting [5]) was “CD4 (2×) and undetectable”.

In the case of GQNYTYKWETFLTRE, in assay [1] (setting [4]), the SFC was 26.7 and 66.7 and 50.0 (2×) and 33.3. Further, the T cell phenotype entry in assay [2] (setting [5]) is “CD4 and undetectable (4×)”.

As to GTVVLTATFALGAAL, the SFC in assay [1] (setting [4]) was 33.3 and 128.3 and 71.7 and 30.0. In assay [2] (setting [5]), the T cell phenotype entry was “CD4 (2×) and undetectable (2×)”.

Turning to GWIISNIFGAIPVLG, in assay [1] (setting [4]), the SFC was 195.0 and 41.7 and 58.3 and 26.7. The T cell phenotype result in assay [2] (setting [5]) is “CD4 and undetectable (3×)”.

With GWSSLGREYAAVAEE, in assay [1] (setting [4]), the SFC was determined as 185.0. In addition, the T cell phenotype entry in assay [2] (setting [5]) was “CD4”.

In the case of ILPIAEMSVVAMEFG, the SFC in assay [1] (setting [4]) was 111.7 and 26.7 and 33.3. Besides, in assay [2] (setting [5]), the T cell phenotype result is “CD4 and undetectable (2×)”.

In turn, INLIIHYVDRPGALG came in with an SFC in assay [1] (setting [4]) of 31.7. In addition, in assay [2] (setting [5]), the T cell phenotype entry is “undetectable”.

With IQARAAALAFEQAYA, in assay [1] (setting [4]), the SFC is 23.3 and 33.3. Moreover, in assay [2] (setting [5]), the T cell phenotype entry was “CD4 and undetectable”.

In the case of IVQINGRHFDLRAQG, in assay [1] (setting [4]), the SFC is 26.7. The T cell phenotype result in assay [2] (setting [5]) is “undetectable”.

With LAAAAAWDALAAELY, the SFC in assay [1] (setting [4]) is 170.0 and 78.3 and 411.7. Further, the T cell phenotype result in assay [2] (setting [5]) is “CD4”.

Consider LALVGFLGGLITGIS, for which the SFC in assay [1] (setting [4]) was 65.0 (2×) and 36.7 and 25.0. Further, the T cell phenotype result in assay [2] (setting [5]) was “CD4 and undetectable (3×)”.

Consider LAWLVQASANSAAMA, for which the SFC in assay [1] (setting [4]) is 25.0. Moreover, in assay [2] (setting [5]), the T cell phenotype result is “undetectable”.

Regarding LGGLWTAVSPHLSPL, the SFC in assay [1] (setting [4]) was 38.3 and 25.0. In addition, the T cell phenotype entry in assay [2] (setting [5]) is “CD4”.

The sequence LLEFAVVLELAILSI had an SFC in assay [1] (setting [4]) of 26.7. Moreover, the T cell phenotype entry in assay [2] (setting [5]) is given as “undetectable”.

On to LSPISNMVSMANNHM, for which the SFC in assay [1] (setting [4]) was 70.0 and 115.0 and 43.3 and 28.3. Further, in assay [2] (setting [5]), the T cell phenotype result is “CD4 and undetectable (3×)”.

Take MHVSFVMAYPEMLAA: the SFC in assay [1] (setting [4]) is 165.0 and 290.0 and 181.7 and 283.3. In assay [2] (setting [5]), the T cell phenotype entry is reported as “CD4”.

In assay [1] (setting [4]), MSFVTTQPEALAAAA had an SFC of 121.7. Besides, the T cell phenotype entry in assay [2] (setting [5]) is “CD4”.

As to “MSQIMYNYPAMMAHA (listed as Mycobacterium tuberculosis) [Rv0288/Rv3019c]”, in assay [3], the “effector memory T cells among tetramer+ cells” value was 4.8-17.2% and the “naïve (CCR7+CD45RA+) among tetramer+ cells” value is on record as 9.8-37.1%.

For PSPSMGRDIKVQFQS, in assay [1] (setting [4]), the SFC is 45.0 and 46.7. The T cell phenotype result in assay [2] (setting [5]) is listed as “undetectable”.

As for QVPSASMGRDIKVQF, the SFC in assay [1] (setting [4]) is 53.3 and 48.3. For the same sequence, the T cell phenotype result in assay [2] (setting [5]) is given as “undetectable”.

For RGKVVLIDFWAYPCI, the SFC in assay [1] (setting [4]) is on record as 35.0. The T cell phenotype entry in assay [2] (setting [5]) is given as “undetectable”.

Take SARLRLLRDRLVEGV: in assay [1] (setting [4]), the SFC is 138.3 and 23.3. In addition, the T cell phenotype result in assay [2] (setting [5]) was “CD4 and undetectable”.

SSYAATEVANAAAAS had an SFC in assay [1] (setting [4]) of 60.0. The T cell phenotype result in assay [2] (setting [5]) is given as “CD4”.

WFINWYLPISQLFYN came in with an SFC in assay [1] (setting [4]) of 40.0. In assay [2] (setting [5]), the T cell phenotype entry was “undetectable”.

YAAALVAMPTLAELA registered an SFC in assay [1] (setting [4]) of 25.0. Further, in assay [2] (setting [5]), the T cell phenotype entry is “undetectable”.

The sequence YASVEAANASPLQVA registered an SFC in assay [1] (setting [4]) of 35.0. Further, the T cell phenotype result in assay [2] (setting [5]) is recorded as “undetectable”.

As to YVAWMSATAALAREA, the SFC in assay [1] (setting [4]) is 150.0 and 83.3 and 58.3 and 25.0. Besides, the T cell phenotype entry in assay [2] (setting [5]) is “CD4 (3×) and undetectable”.

These data come from patent publication US10703784B2, “Antigens and epitopes derived from Mycobacterium tuberculosis” (priority 2011, dated 2020).
